We go through 30 molecules from patent publication US12428415B2, “Matriptase 2 inhibitors and uses thereof” (Disc Medicine, Inc., priority 2018, dated 2025).

The target of the experiment is T1, Human Recombinant Matriptase 2 (Homo sapiens, UniProt Q8IU80).
T1 construct: purchased Enzo Life Sciences (an in-house preparation was also used) ALX-201-752-1
T1 sequence (Q8IU80 1-811): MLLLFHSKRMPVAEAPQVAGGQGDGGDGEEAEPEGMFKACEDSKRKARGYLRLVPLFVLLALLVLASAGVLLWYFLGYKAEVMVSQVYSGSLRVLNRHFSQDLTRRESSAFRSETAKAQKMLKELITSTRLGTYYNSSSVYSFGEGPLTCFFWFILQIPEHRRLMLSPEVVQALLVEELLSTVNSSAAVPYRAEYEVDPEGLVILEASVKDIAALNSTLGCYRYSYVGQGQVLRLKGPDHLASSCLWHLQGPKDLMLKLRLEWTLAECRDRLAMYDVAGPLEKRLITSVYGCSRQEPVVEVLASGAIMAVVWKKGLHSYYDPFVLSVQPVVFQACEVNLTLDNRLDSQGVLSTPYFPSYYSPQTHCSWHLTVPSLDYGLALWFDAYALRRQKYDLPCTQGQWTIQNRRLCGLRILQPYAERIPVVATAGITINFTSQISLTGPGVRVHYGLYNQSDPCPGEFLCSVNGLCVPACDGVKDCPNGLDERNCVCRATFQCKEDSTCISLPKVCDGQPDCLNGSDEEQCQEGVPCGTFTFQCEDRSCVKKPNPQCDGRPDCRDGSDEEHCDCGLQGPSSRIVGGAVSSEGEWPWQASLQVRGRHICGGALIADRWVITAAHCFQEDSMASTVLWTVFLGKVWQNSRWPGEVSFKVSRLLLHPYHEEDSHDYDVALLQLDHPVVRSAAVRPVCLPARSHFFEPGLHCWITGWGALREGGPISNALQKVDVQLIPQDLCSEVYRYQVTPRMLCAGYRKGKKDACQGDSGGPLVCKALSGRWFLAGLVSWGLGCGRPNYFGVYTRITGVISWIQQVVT
The experiment is described as follows: Matriptase 2 fluorescence based inhibition assay, Method A (100 mM TRIS pH 9, 1 mg/mL BSA). The following applies: at 1 uM; Assay Used = A; read-out: Mar-2 % inhibition at 1 uM. Type of experiment: biochemical. The method, boiled down: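 Enzyme (7 nM commercial or 15 nM in-house) preincubated 30 min with compound in 100 mM TRIS pH 9, 1 mg/mL BSA, 1% DMSO at 25° C. Boc-Gln-Ala-Arg-AMC substrate at 100 μM; fluorescence (Ex 360/Em 480 nm) read 60 min later. Screened at 1 and 10 μM; IC50 from variable-slope sigmoidal fit.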

As to `CN(CC1CCCCC1)C(=O)c1cc2ccc(C(=N)N)cc2n1Cc1ccc(C(N)=O)cc1` [Compound I-232, 6-Carbamimidoyl-1-(4-carbamoylbenzyl)-N-(cyclohexylmethyl)-N-methyl-1H-indole-2-carboxamide], the inhibition at 1 µM fell in the range of 0 to 25%.

As to `N=C(N)c1ccc2cc(C(=O)N[C@H]3CC[C@H](N)CC3)n(Cc3ccc(-c4ccccc4)cc3)c2c1` [Compound I-234], the inhibition at 1 µM is 25 to 50%.

With `N=C(N)c1ccc2cc(C(=O)NC3CCC(F)(F)CC3)n(Cc3ccc(-c4ccccc4)cc3)c2c1` [Compound I-235], the inhibition at 1 µM fell in the range of 0 to 25%.

Take `N=C(N)c1ccc2c(Cl)c(C(=O)NCC3CCCCC3)n(Cc3ccc(-c4ccccc4)cc3)c2c1` [Compound I-236]: the inhibition at 1 µM was in the range of 0 to 25%.

For the molecule `CC1CCC(NC(=O)c2c(Cl)c3ccc(C(=N)N)cc3n2Cc2ccc(-c3ccccc3)cc2)CC1` (stereo not drawn) [Compound I-237], the inhibition at 1 µM was in the range of 0 to 25%.

On to `CCc1ccc(-c2cccc(Cn3c(C(=O)NC4CCC(N)CC4)cc4ccc(C(=N)N)cc43)c2)cc1` (stereo not drawn) [Compound I-238], for which the inhibition at 1 µM lay in the range of 25 to 50%.

On to `CCOc1ccc(-c2cccc(Cn3c(C(=O)N[C@H]4CC[C@H](N)CC4)cc4ccc(C(=N)N)cc43)c2)cc1` [Compound I-239], for which the inhibition at 1 µM was 25 to 50%.

As to `N=C(N)c1ccc2cc(C(=O)N[C@H]3CC[C@H](N)CC3)n(Cc3cccc(Oc4ccccc4)c3)c2c1` [Compound I-240], the inhibition at 1 µM lay within 50 to 75%.

On to `N=C(N)c1ccc2cc(C(=O)N[C@H]3CC[C@H](NC(=O)CCN)CC3)n(Cc3ccc(Oc4ccccc4)cc3)c2c1` [Compound I-242, N-((1r,4r)-4-(3-Aminopropanamido)cyclohexyl)-6-carbamimidoyl-1-(4-phenoxybenzyl)-1H-indole-2-carboxamide], for which the inhibition at 1 µM was in the range of 25 to 50%.

With `N=C(N)c1ccc2cc(C(=O)NC3CCC(N)CC3)n(Cc3ccc(Oc4ccc(F)cc4)cc3)c2c1` (stereo not drawn) [Compound I-243], the inhibition at 1 µM lay in the range of 50 to 75%.

Consider `N=C(N)c1ccc2cc(C(=O)NC34CC5CC(CC(O)(C5)C3)C4)n(Cc3ccc(Oc4ccc(F)cc4)cc3)c2c1` [Compound I-244], for which the inhibition at 1 µM fell in the range of 25 to 50%.

For the molecule `N=C(N)c1ccc2cc(C(=O)NC34CC5CC(CC(C5)C3)C4)n(Cc3ccc(Oc4ccc(F)cc4)cc3)c2c1` [Compound I-245], the inhibition at 1 µM lay within 25 to 50%.

Regarding `N=C(N)c1ccc2cc(C(=O)N[C@H]3CC[C@H](N)CC3)n(Cc3ccc(Oc4ccc(F)cc4)nc3)c2c1` [Compound I-246], the inhibition at 1 µM lay in the range of 50 to 75%.

Consider `N=C(N)c1ccc2cc(C(=O)N[C@H]3CC[C@H](N)CC3)n(Cc3ccc(Oc4ccc(Cl)cc4)cc3)c2c1` [Compound I-247], for which the inhibition at 1 µM lay within 50 to 75%.

As for `N=C(N)c1ccc2c(Br)c(C(=O)N[C@H]3CC[C@H](N)CC3)n(Cc3ccc(Oc4ccccc4)cc3)c2c1` [Compound I-250], the inhibition at 1 µM is 25 to 50%.

As to `N=C(N)c1ccc2c(Cl)c(C(=O)N[C@H]3CC[C@H](N)CC3)n(Cc3ccc(Oc4ccccc4)cc3)c2c1` [Compound I-251], the inhibition at 1 µM was in the range of 25 to 50%.

Turning to `N=C(N)c1ccc2c(N)c(C(=O)N[C@H]3CC[C@H](NC(=O)O)CC3)n(Cc3ccc(Oc4ccccc4)cc3)c2c1` [Compound I-253, ((1r,4r)-4-(3-Amino-6-carbamimidoyl-1-(4-phenoxybenzyl)-1H-indole-2-carboxamido)-cyclohexyl) carbamic Acid], the inhibition at 1 µM fell in the range of 0 to 25%.

Turning to `CCOC(=O)Nc1c(C(=O)N[C@H]2CC[C@H](N)CC2)n(Cc2ccc(Oc3ccccc3)cc2)c2cc(C(=N)NO)ccc12` [Compound I-254, Ethyl (2-(((1r,4r)-4-aminocyclohexyl)carbamoyl)-6-((Z)—N′-hydroxycarbamimidoyl)-1-(4-phenoxybenzyl)-1H-indol-3-yl)carbamate], the inhibition at 1 µM was in the range of 25 to 50%.

On to `N=C(N)c1ccc2cc(C(=O)N[C@H]3CC[C@H](N)CC3)n(Cc3cccc(N)c3)c2c1` [Compound I-256, 1-(3-Aminobenzyl)-N-((1r,4r)-4-aminocyclohexyl)-6-carbamimidoyl-1H-indole-2-carboxamide], for which the inhibition at 1 µM was in the range of 25 to 50%.

As for `N=C(N)c1ccc2cc(C(=O)N[C@H]3CC[C@H](N)CC3)n(Cc3cccc(NC(=O)CCN)c3)c2c1` [Compound I-257, N-((1r,4r)-4-aminocyclohexyl)-1-(3-(3-aminopropanamido)benzyl)-6-carbamimidoyl-1H-indole-2-carboxamide], the inhibition at 1 µM lay within 50 to 75%.

Regarding `N=C(N)c1ccc2cc(C(=O)N[C@H]3CC[C@H](N)CC3)n(Cc3cccc(NC(=O)C4CNC4)c3)c2c1` [Compound I-258, N-((1r,4r)-4-Aminocyclohexyl)-1-(3-(azetidine-3-carboxamido)benzyl)-6-carbamimidoyl-1H-indole-2-carboxamide], the inhibition at 1 µM lay in the range of 50 to 75%.

For `N=C(N)c1ccc2cc(C(=O)N[C@H]3CC[C@H](N)CC3)n(Cc3cccc(C(=O)NCCC(=O)O)c3)c2c1` [Compound I-259, 3-(3-((2-(((1r,4r)-4-Amiocyclohexyl)carbamoyl)-6-carbamimidoyl-1H-indol-1-yl)methyl)benzamido)propanoic Acid], the inhibition at 1 µM was in the range of 25 to 50%.

Take `N=C(N)c1ccc2cc(C(=O)NC3CCC(F)(F)CC3)n(Cc3cccc(NC(=O)CCN)c3)c2c1` [Compound I-260, 1-(3-(3-Aminopropanamido)benzyl)-6-carbamimidoyl-N-(4,4-difluorocyclohexyl)-1H-indole-2-carboxamide]: the inhibition at 1 µM was 0 to 25%.

With `N=C(N)c1ccc2cc(C(=O)N[C@H]3CC[C@H](N)CC3)n(Cc3ccc(N)cc3)c2c1` [Compound I-261, 1-(4-Aminobenzyl)-N-((1r,4r)-4-aminocyclohexyl)-6-carbamimidoyl-1H-indole-2-carboxamide], the inhibition at 1 µM fell in the range of 25 to 50%.

For the molecule `N=C(N)c1ccc2cc(C(=O)N[C@H]3CC[C@H](N)CC3)n(Cc3ccc(NC(=O)CCN)cc3)c2c1` [Compound I-262, N-((1r,4r)-4-Aminocyclohexyl)-1-(4-(3-aminopropanamido)benzyl)-6-carbamimidoyl-1H-indole-2-carboxamide], the inhibition at 1 µM fell in the range of 25 to 50%.

On to `N=C(N)c1ccc2cc(C(=O)NC3CC=CCC3)n(Cc3ccc(NC(=O)CCN)cc3)c2c1` (stereo not drawn) [Compound I-264, 1-(4-(3-Aminopropanamido)benzyl)-6-carbamimidoyl-N-(cyclohex-3-en-1-yl)-1H-indole-2-carboxamide], for which the inhibition at 1 µM lay within 0 to 25%.

As for `N=C(N)c1ccc2cc(C(=O)Nc3nc4ccccc4s3)n(Cc3ccc(C(N)=O)cc3)c2c1` [Compound I-265], the inhibition at 1 µM lay in the range of 0 to 25%.

Regarding `Cc1csc(NC(=O)c2cc3ccc(C(=N)N)cc3n2Cc2ccc(C(N)=O)cc2)n1` [Compound I-266], the inhibition at 1 µM was in the range of 0 to 25%.

For the molecule `NC(=O)c1ccc(Cn2c(C(=O)Nc3cccc(N4CCCC4)c3)cc3ccc(/C(N)=N/O)cc32)cc1` [Compound I-267, 1-(4-Carbamoylbenzyl)-6-(N′-hydroxycarbamimidoyl)-N-(3-(pyrrolidin-1-yl)phenyl)-1H-indole-2-carboxamide], the inhibition at 1 µM fell in the range of 0 to 25%.

For `NC(=O)c1ccc(Cn2c(C(=O)Nc3ccc(N4CCCC4)cc3)cc3ccc(/C(N)=N/O)cc32)cc1` [Compound I-268, 1-(4-Carbamoylbenzyl)-6-(N′-hydroxycarbamimidoyl)-N-(4-(pyrrolidin-1-yl)phenyl)-1H-indole-2-carboxamide], the inhibition at 1 µM was 0 to 25%.

A word on the inhibition: it is the share of the control response that was lost under treatment.
